Measurements reported in patent US9695155B2, “Herbicidal substituted pyrimidinyloxy benzene compounds” (E. I. DU PONT DE NEMOURS AND COMPANY, priority 2013, dated 2017).

Experiments:
barnyardgrass [1] = assay: Test A preemergence; format: in vivo, Echinochloa crus-galli; conditions: for Plant response rating, Barnyardgrass: 125 g ai/ha, 0 to 100 scale where 0 is no effect and 100 is complete control; for Barnyardgrass plant response rating: 500 g ai/ha, 0 to 100 scale, 0 no effect, 100 complete control, approx. 10 days
How it was run: (§1)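 Injury scores run from 0, no effect, to 100, complete control, judged by eye against untreated plants roughly 10 days after treatment. Chemicals carried a surfactant in a non-phytotoxic solvent and went onto loam–sand soil preemergence or onto one- to two-leaf seedlings postemergence.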

large (Lg) crabgrass [2] = assay: Test A preemergence; format: in vivo, Digitaria sanguinalis; conditions: for Plant response rating, Crabgrass, Large: 125 g ai/ha, 0 to 100 scale where 0 is no effect and 100 is complete control; for Crabgrass, Large plant response rating: 500 g ai/ha, 0 to 100 scale, 0 no effect, 100 complete control, approx. 10 days
How it was run: as §1

giant foxtail [3] = assay: Test A preemergence; format: in vivo, Setaria faberii; conditions: for Plant response rating, Foxtail, Giant: 125 g ai/ha, 0 to 100 scale where 0 is no effect and 100 is complete control; for Foxtail, Giant plant response rating: 500 g ai/ha, 0 to 100 scale, 0 no effect, 100 complete control, approx. 10 days
How it was run: as §1

morningglory [4] = assay: Test A preemergence; format: in vivo, Ipomoea spp.; conditions: for Plant response rating, Morningglory: 125 g ai/ha, 0 to 100 scale where 0 is no effect and 100 is complete control; for Morningglory plant response rating: 500 g ai/ha, 0 to 100 scale, 0 no effect, 100 complete control, approx. 10 days
How it was run: as §1

pigweed [5] = assay: Test A preemergence; format: in vivo, Amaranthus retroflexus; conditions: for Plant response rating, Pigweed: 125 g ai/ha, 0 to 100 scale where 0 is no effect and 100 is complete control; for Pigweed plant response rating: 500 g ai/ha, 0 to 100 scale, 0 no effect, 100 complete control, approx. 10 days
How it was run: as §1

velvetleaf [6] = assay: Test A preemergence; format: in vivo, Abutilon theophrasti; conditions: for Plant response rating, Velvetleaf: 125 g ai/ha, 0 to 100 scale where 0 is no effect and 100 is complete control; for Velvetleaf plant response rating: 500 g ai/ha, 0 to 100 scale, 0 no effect, 100 complete control, approx. 10 days
How it was run: as §1

wheat [7] = assay: Test A preemergence; format: in vivo, Triticum aestivum; conditions: for Plant response rating, Wheat: 125 g ai/ha, 0 to 100 scale where 0 is no effect and 100 is complete control; for Wheat plant response rating: 500 g ai/ha, 0 to 100 scale, 0 no effect, 100 complete control, approx. 10 days
How it was run: as §1

corn [8] = assay: Test A preemergence; format: in vivo, Zea mays; conditions: for Plant response rating, Corn: 125 g ai/ha, 0 to 100 scale where 0 is no effect and 100 is complete control; for Corn plant response rating: 500 g ai/ha, 0 to 100 scale, 0 no effect, 100 complete control, approx. 10 days
How it was run: as §1

barnyardgrass [9] = assay: Test A postemergence; format: in vivo, Echinochloa crus-galli
How it was run: as §1

large (Lg) crabgrass [10] = assay: Test A postemergence; format: in vivo, Digitaria sanguinalis
How it was run: as §1

giant foxtail [11] = assay: Test A postemergence; format: in vivo, Setaria faberii
How it was run: as §1

morningglory [12] = assay: Test A postemergence; format: in vivo, Ipomoea spp.
How it was run: as §1

pigweed [13] = assay: Test A postemergence; format: in vivo, Amaranthus retroflexus
How it was run: as §1

velvetleaf [14] = assay: Test A postemergence; format: in vivo, Abutilon theophrasti
How it was run: as §1

wheat [15] = assay: Test A postemergence; format: in vivo, Triticum aestivum
How it was run: as §1

corn [16] = assay: Test A postemergence; format: in vivo, Zea mays
How it was run: as §1

rice = assay: Test B flooded paddy test; format: in vivo, Oryza sativa; conditions: Flood, 250 g ai/ha; 0 to 100 scale where 0 is no effect and 100 is complete control
How it was run: (§2)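 Post-emergence paddy-water application at the 2-leaf stage, with 3 cm flood kept for the whole test. Response was judged visually relative to controls after 13 to 15 greenhouse days, 0 indicating no effect and 100 complete control.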

sedge, umbrella = assay: Test B flooded paddy test; format: in vivo, Cyperus difformis; conditions: Flood, 250 g ai/ha; 0 to 100 scale where 0 is no effect and 100 is complete control
How it was run: as §2

Heteranthera limosa = assay: Test B flooded paddy test; format: in vivo; conditions: Flood, 250 g ai/ha; 0 to 100 scale where 0 is no effect and 100 is complete control
How it was run: as §2

barnyardgrass [17] = assay: Test B flooded paddy test; format: in vivo, Echinochloa crus-galli; conditions: Flood, 250 g ai/ha; 0 to 100 scale where 0 is no effect and 100 is complete control
How it was run: as §2

[18] = 125 g ai/ha, 0 to 100 scale where 0 is no effect and 100 is complete control
[19] = 500 g ai/ha, 0 to 100 scale, 0 no effect, 100 complete control

Structure (SMILES) | Plant response rating, Barnyardgrass (barnyardgrass [1]) | Barnyardgrass plant response rating (barnyardgrass [1]) | Plant response rating, Crabgrass, Large (large (Lg) crabgrass [2]) | Crabgrass, Large plant response rating (large (Lg) crabgrass [2]) | Plant response rating, Foxtail, Giant (giant foxtail [3]) | Foxtail, Giant plant response rating (giant foxtail [3]) | Plant response rating, Morningglory (morningglory [4]) | Morningglory plant response rating (morningglory [4]) | Plant response rating, Pigweed (pigweed [5]) | Pigweed plant response rating (pigweed [5]) | Plant response rating, Velvetleaf (velvetleaf [6]) | Velvetleaf plant response rating (velvetleaf [6]) | Plant response rating, Wheat (wheat [7]) | Wheat plant response rating (wheat [7]) | Plant response rating, Corn (corn [8]) | Corn plant response rating (corn [8]) | Plant response rating, Barnyardgrass (barnyardgrass [9]; [18]) | Plant response rating, Barnyardgrass (barnyardgrass [9]; [19]) | Plant response rating, Crabgrass, Large (large (Lg) crabgrass [10]; [18]) | Plant response rating, Crabgrass, Large (large (Lg) crabgrass [10]; [19]) | further results
Cc1cnn(-c2ccccc2Oc2ncc(Cl)cn2)c1 [Compound 23] | 20 | 50 | 90 | 90 | 70 | 90 | 0 | 0 | 100 | 100 | 90 | 90 | 0 | 0 | 0 | 20 | 0 | 40 | 20 | 60 | Plant response rating, Foxtail, Giant (giant foxtail [11]; [18]): 40; Plant response rating, Foxtail, Giant (giant foxtail [11]; [19]): 90; Plant response rating, Morningglory (morningglory [12]; [18]): 50; Plant response rating, Morningglory (morningglory [12]; [19]): 90; Plant response rating, Pigweed (pigweed [13]; [18]): 90; Plant response rating, Pigweed (pigweed [13]; [19]): 100; Plant response rating, Velvetleaf (velvetleaf [14]; [18]): 80; Plant response rating, Velvetleaf (velvetleaf [14]; [19]): 100; Plant response rating, Wheat (wheat [15]; [18]): 0; Plant response rating, Wheat (wheat [15]; [19]): 20; Plant response rating, Corn (corn [16]; [18]): 0; Plant response rating, Corn (corn [16]; [19]): 60; Plant response rating, Rice (rice): 35; Plant response rating, Sedge, Umbrella (sedge, umbrella): 70; Plant response rating, Ducksalad (Heteranthera limosa): 80; Plant response rating, Barnyardgrass (barnyardgrass [17]): 20
Brc1cnc(Oc2ccccc2-n2cc(Br)c(Br)n2)nc1 [Compound 24] | 0 | 0 | 0 | 0 | 0 | 0 | 0 | 0 | 0 | 0 | 0 | 0 | 0 | 0 | 0 | 0 | 0 | 0 | 0 | 0 | Plant response rating, Foxtail, Giant (giant foxtail [11]; [18]): 0; Plant response rating, Foxtail, Giant (giant foxtail [11]; [19]): 0; Plant response rating, Morningglory (morningglory [12]; [18]): 0; Plant response rating, Morningglory (morningglory [12]; [19]): 0; Plant response rating, Pigweed (pigweed [13]; [18]): 0; Plant response rating, Pigweed (pigweed [13]; [19]): 60; Plant response rating, Velvetleaf (velvetleaf [14]; [19]): 0; Plant response rating, Wheat (wheat [15]; [18]): 0; Plant response rating, Wheat (wheat [15]; [19]): 0; Plant response rating, Corn (corn [16]; [18]): 0; Plant response rating, Corn (corn [16]; [19]): 0; Plant response rating, Rice (rice): 35; Plant response rating, Sedge, Umbrella (sedge, umbrella): 60; Plant response rating, Ducksalad (Heteranthera limosa): 0; Plant response rating, Barnyardgrass (barnyardgrass [17]): 0
FC(F)(F)c1ccn(-c2ccccc2Sc2ncc(Cl)cn2)n1 [Compound 28] | 0 | 10 | 0 | 10 | 0 | 10 | 0 | 0 | 0 | 40 | 0 | 0 | 0 | 0 | 0 | 0 | 0 | 10 | 0 | 20 | Plant response rating, Foxtail, Giant (giant foxtail [11]; [18]): 0; Plant response rating, Foxtail, Giant (giant foxtail [11]; [19]): 10; Plant response rating, Morningglory (morningglory [12]; [18]): 10; Plant response rating, Morningglory (morningglory [12]; [19]): 10; Plant response rating, Pigweed (pigweed [13]; [18]): 10; Plant response rating, Pigweed (pigweed [13]; [19]): 30; Plant response rating, Velvetleaf (velvetleaf [14]; [18]): 0; Plant response rating, Velvetleaf (velvetleaf [14]; [19]): 30; Plant response rating, Wheat (wheat [15]; [18]): 0; Plant response rating, Wheat (wheat [15]; [19]): 0; Plant response rating, Corn (corn [16]; [18]): 0; Plant response rating, Corn (corn [16]; [19]): 20; Plant response rating, Rice (rice): 0; Plant response rating, Sedge, Umbrella (sedge, umbrella): 0; Plant response rating, Ducksalad (Heteranthera limosa): 35; Plant response rating, Barnyardgrass (barnyardgrass [17]): 0
CC(C)(C)c1ccn(-c2ccccc2Oc2ncc(Cl)cn2)n1 [Compound 29] | 0 | 20 | 10 | 40 | 10 | 20 | 0 | 0 | 0 | 0 | 0 | 40 | 0 | 0 | 0 | 0 | 0 | 0 | 10 | 40 | Plant response rating, Foxtail, Giant (giant foxtail [11]; [18]): 20; Plant response rating, Foxtail, Giant (giant foxtail [11]; [19]): 30; Plant response rating, Morningglory (morningglory [12]; [18]): 0; Plant response rating, Morningglory (morningglory [12]; [19]): 0; Plant response rating, Pigweed (pigweed [13]; [18]): 20; Plant response rating, Pigweed (pigweed [13]; [19]): 50; Plant response rating, Velvetleaf (velvetleaf [14]; [18]): 20; Plant response rating, Velvetleaf (velvetleaf [14]; [19]): 40; Plant response rating, Wheat (wheat [15]; [18]): 0; Plant response rating, Wheat (wheat [15]; [19]): 0; Plant response rating, Corn (corn [16]; [18]): 0; Plant response rating, Corn (corn [16]; [19]): 0; Plant response rating, Rice (rice): 0; Plant response rating, Sedge, Umbrella (sedge, umbrella): 0; Plant response rating, Ducksalad (Heteranthera limosa): 0; Plant response rating, Barnyardgrass (barnyardgrass [17]): 0
CC(C)(C)c1ccn(-c2ccccc2Oc2ncc(Br)cn2)n1 [Compound 30] | 0 | 10 | 40 | 60 | 0 | 30 | 0 | 0 | 0 | 0 | 10 | 40 | 0 | 0 | 0 | 0 | 10 | 10 | 30 | 40 | Plant response rating, Foxtail, Giant (giant foxtail [11]; [18]): 10; Plant response rating, Foxtail, Giant (giant foxtail [11]; [19]): 10; Plant response rating, Morningglory (morningglory [12]; [18]): 0; Plant response rating, Morningglory (morningglory [12]; [19]): 0; Plant response rating, Pigweed (pigweed [13]; [18]): 0; Plant response rating, Pigweed (pigweed [13]; [19]): 30; Plant response rating, Velvetleaf (velvetleaf [14]; [18]): 20; Plant response rating, Velvetleaf (velvetleaf [14]; [19]): 30; Plant response rating, Wheat (wheat [15]; [18]): 0; Plant response rating, Wheat (wheat [15]; [19]): 0; Plant response rating, Corn (corn [16]; [18]): 0; Plant response rating, Corn (corn [16]; [19]): 0; Plant response rating, Rice (rice): 0; Plant response rating, Sedge, Umbrella (sedge, umbrella): 0; Plant response rating, Ducksalad (Heteranthera limosa): 0; Plant response rating, Barnyardgrass (barnyardgrass [17]): 0
